The source of these data is patent US12403144B2, “HECT E3 ligase inhibitors and uses thereof” (IFOM FONDAZIONE ISTITUTO FIRC DI ONCOLOGIA MOLECOLARE, priority 2019, dated 2025).

The structures appear in SMILES notation. Structures can show the parent of a compound that is named as a salt. Bounds are passed on as bounds.

The assay addresses T1, untagged HECT of NEDD4 wild-type (WT) (E3 ligase) (Homo sapiens, UniProt P46934).
T1 construct: untagged HECT of NEDD4 wild-type (WT) (E3 ligase); made in house
T1 sequence (P46934 519-900 isoform P46934-4 limits assumed): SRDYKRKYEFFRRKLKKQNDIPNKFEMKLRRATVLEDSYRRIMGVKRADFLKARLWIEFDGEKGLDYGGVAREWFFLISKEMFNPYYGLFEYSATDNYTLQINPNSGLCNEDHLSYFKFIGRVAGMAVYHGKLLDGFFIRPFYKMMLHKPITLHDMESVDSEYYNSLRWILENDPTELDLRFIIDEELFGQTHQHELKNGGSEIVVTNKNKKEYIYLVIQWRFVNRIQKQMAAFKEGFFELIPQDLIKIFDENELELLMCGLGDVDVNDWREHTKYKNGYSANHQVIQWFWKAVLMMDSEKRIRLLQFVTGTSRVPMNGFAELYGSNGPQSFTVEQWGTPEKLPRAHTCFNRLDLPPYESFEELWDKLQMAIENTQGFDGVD
Briefly: In vitro ubiquitination assay TR-FRET based (self-ubiquitination of NEDD4). As to conditions: at 11 μM; pre-incubated for 1 hour; AUC of 120 minutes kinetic; read-out: percentages of inhibition (NEDD4). Format: biochemical. An excerpt:
FIG. 1: TR-FRET kinetic assay performed with compound 12. […] Reactions were initiated with the addition of ATP. As labeled ubiquitin molecules become incorporated into chains they come into close proximity, resulting in energy transfer and increased signal to background detection. The activity of the enzyme is continuously and real time detected and it is expressed as % of signal/background during the time.
In order to quantitatively measure the self-ubiquitination process of the E3 HECT ligase NEDD4 the inventors employed a TR-FRET based assay. TR-FRET technology exploits the long-lasting emission of lanthanide fluorescence to interpose a short time-delay between FRET donor excitation and emission. This phenomenon enables to isolate real fluorescent signals from short-lived background emissions, thus reducing possible interference from compounds.
In the present study, elongation of the ubiqutin chain by NEDD4 is measured by adding bacterially expressed E1, His-tagged UBE2D3 (E2) and untagged HECT of NEDD4 wild-type (WT) (E3 ligase) (named in FIG. 1 as WT) enzymes to a mixture of Eu-cryptate ubiquitin, Cy5-ubiquitin and wild-type ubiquitin, combined in a ratio optimized for TR-FRET based conjugation (100×TRF-Ubiquitin Mix, SBB-TR0051). […] Bacterially expressed E1, His-tagged UBE2D3 (E2), untagged HECT NEDD4 (E3 ligase) WT and NEDD4 C/A enzymes were produced and purified as reported in E. Maspero et al. Methods Mol Biol. 1449:153-60 (2016).
Enzymatic incorporation of the labeled TRF-Ubiquitin mix into chains leads to an increase in fluorescence emission at 665 nm (emission of the acceptor Cy5-Ubiquitin, Emacceptor) and decrease at emission wavelength 620 nm (emission of the donor Eu-cryptate Ubiquitin, Emdonor).
The assay was performed in a 384-well plate format (Optiplate, Perkin Elmer, #6007290) on an automated liquid-handler (Hamilton STAR, Hamilton Robotics, Switzerland).
All compounds were dissolved in 100% DMSO and serially diluted in 96-well plates (from 100 μM to 0.005 μM).
Briefly, all reagents were thawed and kept on ice. A master mix containing E1, E2, E3 and TRF-Ubiquitin Mix (SBB-TR0051) diluted in the assay buffer (Tris-HCl pH 7.6 25 mM, NaCl 100 mM, MgCl2 5 mM and Tween 0.01%) is prepared and 50 μl/well is dispensed in a 384 well plate. 3 μl of compounds dissolved in DMSO in the above-indicated concentration range were added and pre-incubated for 1 hour. Final E1, E2 and E3 concentrations in the assay buffer (Tris-HCl pH 7.6 25 mM, NaCl 100 mM, MgCl2 5 mM and Tween 0.01%) were 30, 350 and 50 nanomolars, respectively. The reaction was initiated with the addition of ATP (22 μl of 2 mM ATP, JenaBioscience, NU-1010) and was allowed to proceed for 120 minutes, measuring fluorescence emission at 665 nm and 620 nm in real-time on an EnSpire microplate reader (Perkin Elmer).
Kinetic raw data were analyzed by Area Under the Curve (AUC) method using Prism GraphPad software.
% signal/background corresponds to the following equation: (Experimental signal−Background signal)/Background signal×100%
Experimental signal corresponds to the signal obtained by the enzymatic reaction in presence of the vehicle (DMSO) and/or the different compound concentrations. Background signal corresponds to the signal obtained by the enzymatic reaction in absence of ATP.
The relative potency of the compounds was evaluated by dose-response curves following the enzymatic reaction of HECT NEDD4 WT in real time for 120 minutes.
Percentage of inhibition is then determined by the equation: % inhibition=100×[1−(X)/(MAX)],
where MAX correspond to AUC of the vehicle (DMSO) treated enzyme, and X corresponds to the AUC of the compound treated enzyme.
In general terms: In TR-FRET formats the signal depends on donor and acceptor labels being close together.
In the case of `CCOC(=O)/C=C/CNCCCN1c2cc(Cl)ccc2C(=O)N(C)c2ccccc21` [Compound 27, Ethyl (E)-4-{[3-(3-chloro-10-methyl-11-oxo-10,11-dihydro-5H-dibenzo[b,e][1,4]diazepin-5-yl)propyl]amino}but-2-enoate maleate], the inhibition at 11 µM is greater than 50%.
Take `CCOC(=O)/C=C/CNCCCN1c2ccccc2C(=O)N(C)c2ccc(Cl)cc21` [Compound 28, Ethyl (E)-4-{[3-(7-chloro-10-methyl-11-oxo-10,11-dihydro-5H-dibenzo[b,e][1,4]diazepin-5-yl)propyl]amino}but-2-enoate maleate]: the inhibition at 11 µM is greater than 50%.
Take `CCOC(=O)/C=C/CNCCCN1c2cc(Cl)ccc2CCc2cnn(C)c21` [Compound 30, Ethyl (E)-4-{[3-(8-chloro-1-methyl-4,5-dihydropyrazolo-[3,4-b][1]-benzazepin-10(1H)-yl)propyl]amino}but-2-enoate maleate]: the inhibition at 11 µM is greater than 50%.
For `CCOC(=O)/C=C/CNCCCN1c2cc(Cl)ccc2CCc2cn(C)nc21` [Compound 31], the inhibition at 11 µM is less than 30%.
To `CCOC(=O)/C=C/CNCCCN1c2cc(Cl)ccc2CCc2cncnc21` [Compound 32, Ethyl (E)-4-{[3-(9-chloro-5,6-dihydro-11H-pyrimido[4,5-b][1]-benzazepin-11-yl)propyl]amino}but-2-enoate fumarate] belongs greater than 50%; to `CCOC(=O)/C=C/CNCCC(=O)N1c2ccccc2CCc2ccc(Cl)cc21` [Compound 33, Ethyl (E)-4-{[3-(3-chloro-10,11-dihydro-5H-dibenzo[b,f]azepin-5-yl)-3-oxo-propyl]amino}but-2-enoate maleate], less than 30%.
For the compound `CCOC(=O)/C=C/CNCC(O)CN1c2ccccc2CCc2ccc(Cl)cc21` (stereo not shown) [Compound 34, Ethyl (E)-4-{[2-hydroxy-3-(3-chloro-10,11-dihydro-5H-dibenzo[b,f]azepin-5-yl)]propylamino} but-2-enoate], the inhibition at 11 µM is greater than 50%.
Turning to `CCOC(=O)/C=C/CNCCCN1c2cc(Cl)ccc2COc2ccccc21` [Compound 35, Ethyl (E)-4-{3-[3-chlorodibenzo[b,e][1,4]oxazepin-5(11H)-yl]propylamino}but-2-enoate maleate], the inhibition at 11 µM was greater than 50%.
`CCOC(=O)/C=C/CNCCCCN1c2cc(Cl)ccc2COc2ccccc21` [Compound 36, Ethyl (E)-4-{4-[3-chlorodibenzo[b,e][1,4]oxazepin-5(11H)-yl]butylamino}but-2-enoate maleate]: the inhibition at 11 µM was greater than 50%.
As to `CCOC(=O)/C=C/CNCCCCN1c2ccccc2COc2ccc(Cl)cc21` [Compound 37, Ethyl (E)-4-{4-[7-chlorodibenzo[b,e][1,4]oxazepin-5(11H)-yl]butylamino}but-2-enoate maleate], the inhibition at 11 µM was greater than 50%.
In the case of `CCOC(=O)/C=C/CNCCCC(=O)N1c2ccccc2CCc2ccc(Cl)cc21` [Compound 38, Ethyl (E)-4-{[4-(3-chloro-10,11-dihydro-5H-dibenzo[b,f]azepin-5-yl)-4-oxo-butyl]amino}but-2-enoate maleate], the inhibition at 11 µM is greater than 50%.
The value for `CCOC(=O)/C=C/CNCCCCN1c2ccc(O)cc2CCc2ccc(Cl)cc21` [Compound 39, Ethyl (E)-4-[4-(7-Chloro-2-hydroxy-10,11-dihydro-dibenzo[b,f]azepin-5-yl)-butylamino]-but-2-enoate maleate] was greater than 50%; that for `CCOC(=O)/C=C/CNCCCCN1c2ccccc2CCc2cc(O)c(Cl)cc21` [Compound 40, Ethyl (E)-4-[4-(3-Chloro-2-hydroxy-10,11-dihydro-dibenzo[b,f]azepin-5-yl)-butylamino]-but-2-enoate maleate] was greater than 50%; that for `CCOC(=O)/C=C/CNCCCCN1c2cc(Cl)ccc2NC(=O)c2ccccc21` [Compound 41, Ethyl (E)-4-{[4-(7-chloro-11-oxo-10,11-dihydro-5H-dibenzo[b,e][1,4]diazepin-5-yl)butyl]amino}but-2-enoate maleate] was greater than 50%.
In the case of `CCOC(=O)/C=C/CNCCCCN1c2cc(Cl)ccc2CCc2cnn(C)c21` [Compound 43, Ethyl (E)-4-{[4-(8-chloro-1-methyl-4,5-dihydropyrazolo-[3,4-b][1]-benzazepin-10(1H)-yl)butyl]amino}but-2-enoate maleate], the inhibition at 11 µM is greater than 50%.
With `CCOC(=O)/C=C/CNCCCCN1c2ccccc2C(=O)N(CCc2ccccc2)c2ccc(Cl)cc21` [Compound 44, Ethyl (E)-4-{[4-(7-chloro-10-(2-phenylethyl)-11-oxo-10,11-dihydro-5H-dibenzo[b,e][1,4]diazepin-5-yl)butyl]amino}but-2-enoate maleate], the inhibition at 11 µM is greater than 50%.
To `CCOC(=O)/C=C/CNCCCCN1c2cc(Cl)ccc2C(=O)N(CCO)c2ccccc21` [Compound 46, Ethyl (E)-4-({4-[3-chloro-10-(2-hydroxyethyl)-11-oxo-10,11-dihydro-5H-dibenzo[b,e][1,4]diazepin-5-yl]butyl}amino)but-2-enoate maleate] belongs greater than 50%.
To `CCOC(=O)/C=C/CNCCCN1c2cc(Cl)ccc2C(=O)N(CCO)c2ccccc21` [Compound 47, Ethyl (E)-4-({3-[3-chloro-10-(2-hydroxyethyl)-11-oxo-10,11-dihydro-5H-dibenzo[b,e][1,4]diazepin-5-yl]propyl}amino)but-2-enoate maleate] belongs greater than 50%; to `CCOC(=O)/C=C/CNCCCCN1c2cc(Cl)ccc2C(=O)N(CCCO)c2ccccc21` [Compound 48, Ethyl (E)-4-({4-[3-chloro-10-(3-hydroxypropyl)-11-oxo-10,11-dihydro-5H-dibenzo[b,e][1,4]diazepin-5-yl]butyl}amino)but-2-enoate maleate], greater than 50%.
For the compound `CCOC(=O)/C=C/CNCCCN1c2cc(Cl)ccc2C(=O)N(CCCO)c2ccccc21` [Compound 49, Ethyl (E)-4-({3-[3-chloro-10-(3-hydroxypropyl)-11-oxo-10,11-dihydro-5H-dibenzo[b,e][1,4]diazepin-5-yl]propyl}amino)but-2-enoate maleate], the inhibition at 11 µM was greater than 50%.
Take `CCOC(=O)/C=C/CNCCCCN1c2ccccc2C(=O)N(CCO)c2ccc(Cl)cc21` [Compound 50, Ethyl (E)-4-({4-[7-chloro-10-(2-hydroxyethyl)-11-oxo-10,11-dihydro-5H-dibenzo[b,e][1,4]diazepin-5-yl]butyl}amino)but-2-enoate maleate]: the inhibition at 11 µM is greater than 50%.
`CCOC(=O)/C=C/CNCCCCN1c2ccccc2C(=O)N(CCCO)c2ccc(Cl)cc21` [Compound 51, Ethyl (E)-4-({4-[7-chloro-10-(3-hydroxypropyl)-11-oxo-10,11-dihydro-5H-dibenzo[b,e][1,4]diazepin-5-yl]butyl}amino)but-2-enoate maleate]: the inhibition at 11 µM was greater than 50%.

In general, inhibition refers to the share of the control response that was lost under treatment.
